# Experimental data: patent US11111237B2, “Bicyclic compound and use thereof” (SK BIOPHARMACEUTICALS CO., LTD., priority 2019, dated 2021)
# Counter-ions that a name gives are not always drawn.
# Molecular target: PRMT5-MEP50 enzyme complex (Homo sapiens (Human), UniProt O14744)
# Assay: PRMT5 enzyme activity in vitro assay (methylation of histone H4R3, ELISA absorbance at 450 nm)
# Format: biochemical
# Conditions: SAM, histone H4 peptide, room temperature 2 hours, 8 points from 10 μM to 0.128 nM
# In short: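 Human PRMT5-MEP50 was prepared at 5 μg/mL with SAM at 2 μM and reacted 2 h at room temperature on plate-coated histone H4 (1-20) peptide. An 8-point 1:5 compound series ran from 10 μM to 0.128 nM. H4R3 methylation was detected by antibody/HRP ELISA at 450 nm to give IC50.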
# Chain of PRMT5-MEP50 enzyme complex (O14744 2-637): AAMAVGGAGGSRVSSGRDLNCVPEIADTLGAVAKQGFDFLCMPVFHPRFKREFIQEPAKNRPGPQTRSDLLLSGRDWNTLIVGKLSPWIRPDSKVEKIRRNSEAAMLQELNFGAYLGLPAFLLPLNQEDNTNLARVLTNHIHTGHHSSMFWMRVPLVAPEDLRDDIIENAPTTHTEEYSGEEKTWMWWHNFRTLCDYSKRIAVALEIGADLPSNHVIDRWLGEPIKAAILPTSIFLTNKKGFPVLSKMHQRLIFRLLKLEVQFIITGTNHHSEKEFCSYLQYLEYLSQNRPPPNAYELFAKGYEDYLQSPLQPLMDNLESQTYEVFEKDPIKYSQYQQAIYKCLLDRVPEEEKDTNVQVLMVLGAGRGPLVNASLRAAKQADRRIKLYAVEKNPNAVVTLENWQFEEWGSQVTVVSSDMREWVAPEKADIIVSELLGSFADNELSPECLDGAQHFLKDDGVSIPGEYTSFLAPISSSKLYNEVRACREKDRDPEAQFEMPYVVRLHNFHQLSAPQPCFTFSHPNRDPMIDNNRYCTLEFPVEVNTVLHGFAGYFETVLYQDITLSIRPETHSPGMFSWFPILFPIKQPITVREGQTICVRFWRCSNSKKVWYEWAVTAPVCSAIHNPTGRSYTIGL
# Chain of PRMT5-MEP50 enzyme complex (Q9BQA1 2-342 partner): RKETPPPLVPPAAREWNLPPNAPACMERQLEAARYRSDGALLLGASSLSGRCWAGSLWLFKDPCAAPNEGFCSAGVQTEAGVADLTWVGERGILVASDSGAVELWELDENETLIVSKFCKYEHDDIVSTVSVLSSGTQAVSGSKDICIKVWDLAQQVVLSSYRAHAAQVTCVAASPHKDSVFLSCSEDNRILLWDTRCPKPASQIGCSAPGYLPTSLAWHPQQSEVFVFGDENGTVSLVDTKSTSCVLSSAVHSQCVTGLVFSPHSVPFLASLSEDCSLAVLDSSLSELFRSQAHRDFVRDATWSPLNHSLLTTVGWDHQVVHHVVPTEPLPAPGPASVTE
row,SMILES,IC50
1,"O=C(c1ccc2c(c1)OCCN(C[C@H](O)CN1CCc3ccccc3C1)C2=O)N1CCC(F)CC1 [Example 184, 4-[(2R)-3-(3,4-dihydro-1H-isoquinolin-2-yl)-2-hydroxy-propyl]-8-(4-fluoropiperidine-1-carbonyl)-2,3-dihydro-1,4-benzoxazepin-5-one]",0.1 to 1 µM
2,"CCC(=O)c1ccc2c(c1)OCCN(C[C@H](O)CN1CCc3ccccc3C1)C2=O [Example 214, 4-[(2R)-3-(3,4-dihydro-1H-isoquinolin-2-yl)-2-hydroxy-propyl]-8-propanoyl-2,3-dihydro-1,4-benzoxazepin-5-one]",0.1 to 1 µM
3,"CC1(C)CN(C[C@H](O)CN2CCc3ccccc3C2)C(=O)c2ccc(CN3CC4(COC4)C3)cc2O1 [Example 170, 4-[(2R)-3-(3,4-dihydro-1H-isoquinolin-2-yl)-2-hydroxy-propyl]-2,2-dimethyl-8-(2-oxa-6-azaspiro[3.3]heptan-6-ylmethyl)-3H-1,4-benzoxazepin-5-one]",0.1 to 1 µM
4,"CC(O)CN1CCC(Oc2ccc3c(n2)OC(C)(C)CN(C[C@H](O)CN2CCc4ccccc4C2)C3=O)CC1 (stereo partly drawn) [Example 248, 4-[(2R)-3-(3,4-dihydro-1H-isoquinolin-2-yl)-2-hydroxy-propyl]-8-[[1-(2-hydroxypropyl)-4-piperidyl]oxy]-2,2-dimethyl-3H-pyrido[3,2-f][1,4]oxazepin-5-one]",0.001 to 0.1 µM
5,"CCN1CCC(COc2ccc3c(c2)OCCN(C[C@H](O)CN2CCc4ccccc4C2)C3=O)CC1 [Example 103, 4-[(2R)-3-(3,4-dihydro-1H-isoquinolin-2-yl)-2-hydroxy-propyl]-8-[(1-ethyl-4-piperidyl)methoxy]-2,3-dihydro-1,4-benzoxazepin-5-one]",0.1 to 1 µM
6,"O=C1c2ccc(CN3CC4CCCC4C3)cc2OCCN1C[C@H](O)CN1CCc2ccccc2C1 (stereo partly drawn) [Example 34, 8-(3,3a,4,5,6,6a-hexahydro-1H-cyclopenta[c]pyrrol-2-ylmethyl)-4-[(2R)-3-(3,4-dihydro-1H-isoquinolin-2-yl)-2-hydroxy-propyl]-2,3-dihydro-1,4-benzoxazepin-5-one]",0.001 to 0.1 µM
7,"CC(C)(C)OC(=O)N1CC=C(c2ccc3c(c2)OCCN(C[C@H](O)CN2CCc4ccccc4C2)C3=O)CC1 [Example 14, Tert-butyl 4-[4-[(2R)-3-(3,4-dihydro-1H-isoquinolin-2-yl)-2-hydroxy-propyl]-5-oxo-2,3-dihydro-1,4-benzoxazepin-8-yl]-3,6-dihydro-2H-pyridine-1-carboxylate]",0.1 to 1 µM
8,"CC1COCC(C)N1C(=O)c1ccc2c(c1)OC(C)(C)CN(C[C@H](O)CN1CCc3ccccc3C1)C2=O (stereo partly drawn) [Example 205, 4-[(2R)-3-(3,4-dihydro-1H-isoquinolin-2-yl)-2-hydroxy-propyl]-8-(3,5-dimethylmorpholin-4-carbonyl)-2,2-dimethyl-3H-1,4-benzoxazepin-5-one]",0.1 to 1 µM
9,"C[C@H]1CN(C[C@H](O)CN2CCc3ccccc3C2)C(=O)c2ccc(OC3CCN(C)CC3)cc2O1 [Example 146, (2S)-4-[(2R)-3-(3,4-dihydro-1H-isoquinolin-2-yl)-2-hydroxypropyl]-2-methyl-8-[(1-methyl-4-piperidyl)oxy]-2,3-dihydro-1,4-benzoxazepin-5-one]",0.1 to 1 µM
10,"CCN1C2CCC1CC(Oc1ccc3c(c1)N(C)CCN(C[C@H](O)CN1CCc4ccccc4C1)C3=O)C2 (stereo partly drawn) [Example 137, 4-[(2R)-3-(3,4-dihydro-1H-isoquinolin-2-yl)-2-hydroxy-propyl]-8-[(8-ethyl-8-azabicyclo[3.2.1]octan-3-yl)oxy]-1-methyl-2,3-dihydro-1,4-benzodiazepin-5-one]",0.001 to 0.1 µM
11,"CN1CCC(Oc2cc(F)c3c(c2)OCCN(C[C@H](O)CN2CCc4ccccc4C2)C3=O)CC1 [Example 109, 4-[(2R)-3-(3,4-dihydro-1H-isoquinolin-2-yl)-2-hydroxy-propyl]-6-fluoro-8-[(1-methyl-4-piperidyl)oxy]-2,3-dihydro-1,4-benzoxazepin-5-one]",0.1 to 1 µM
12,C[C@@H]1CN(C[C@H](O)CN2CCc3ccccc3C2)C(=O)c2ccc(OC3CC4CCC(C3)N4CCF)cc2O1 (some centres unmarked) [Example 242],0.001 to 0.1 µM
13,"O=C1c2ccc(OC3CCN(CCO)CC3F)cc2OCCN1C[C@H](O)CN1CCc2ccccc2C1 (stereo partly drawn) [Example 208, 4-[(2R)-3-(3,4-dihydro-1H-isoquinolin-2-yl)-2-hydroxy-propyl]-8-[[3-fluoro-1-(2-hydroxyethyl)-4-piperidyl]oxy]-2,3-dihydro-1,4-benzoxazepin-5-one]",0.1 to 1 µM
14,"O=C1c2ccc(C3=CCNCC3)cc2OCCN1C[C@H](O)CN1CCc2ccccc2C1 [Example 15, 4-[(2R)-3-(3,4-dihydro-1H-isoquinolin-2-yl)-2-hydroxy-propyl]-8-(1,2,3,6-tetrahydropyridin-4-yl)-2,3-dihydro-1,4-benzoxazepin-5-one]",0.001 to 0.1 µM
15,"O=C(c1ccc2c(c1)OCCN(C[C@H](O)CN1CCc3ccccc3C1)C2=O)N1CCCC1 [Example 175, 4-[(2R)-3-(3,4-dihydro-1H-isoquinolin-2-yl)-2-hydroxy-propyl]-8-(pyrrolidin-1-carbonyl)-2,3-dihydro-1,4-benzoxazepin-5-one]",0.1 to 1 µM

# More lines, now with the values ahead:
row,IC50,SMILES
1,0.1 to 1 µM,"CCOCCN1CCC(Oc2ccc3c(c2)O[C@H](C)CN(C[C@H](O)CN2CCc4ccccc4C2)C3=O)CC1 [Example 240, (2R)-4-[(2R)-3-(3,4-dihydro-1H-isoquinolin-2-yl)-2-hydroxy-propyl]-8-[[1-(2-ethoxyethyl)-4-piperidyl]oxy]-2-methyl-2,3-dihydro-1,4-benzoxazepin-5-one]"
2,0.1 to 1 µM,"CN1CCN(C[C@H](O)CN2CCc3ccccc3C2)C(=O)c2ccc(OCc3ccc(F)cn3)cc21 [Example 139, 4-[(2R)-3-(3,4-dihydro-1H-isoquinolin-2-yl)-2-hydroxy-propyl]-8-[(5-fluoro-2-pyridyl)methoxy]-1-methyl-2,3-dihydro-1,4-benzodiazepin-5-one]"
3,0.001 to 0.1 µM,"O=C1c2ccc(-c3cccnc3)cc2OCCN1C[C@H](O)CN1CCc2ccccc2C1 [Example 230, 4-[(2R)-3-(3,4-dihydro-1H-isoquinolin-2-yl)-2-hydroxy-propyl]-8-(3-pyridyl)-2,3-dihydro-1,4-benzoxazepin-5-one]"
4,0.1 to 1 µM,"C[C@@H]1CN(C[C@H](O)CN2CCc3ccccc3C2)C(=O)c2ccc(O[C@@H]3CCN(C)C3)cc2O1 [Example 273, (2R)-4-[(2R)-3-(3,4-dihydro-1H-isoquinolin-2-yl)-2-hydroxy-propyl]-2-methyl-8-[(3R)-1-methylpyrrolidin-3-yl]oxy-2,3-dihydro-1,4-benzoxazepin-5-one]"
5,0.1 to 1 µM,"CCN1CCC(Oc2ccc3c(c2)N(C)CCN(C[C@H](O)CN2CCc4ccccc4C2)C3=O)CC1 [Example 126, 4-[(2R)-3-(3,4-dihydro-1H-isoquinolin-2-yl)-2-hydroxy-propyl]-8-[(1-ethyl-4-piperidyl)oxy]-1-methyl-2,3-dihydro-1,4-benzodiazepin-5-one]"
6,0.1 to 1 µM,"C[C@@H]1CN(C[C@H](O)CN2CCc3ccccc3C2)C(=O)c2ccc(OC3CCN(CCO)CC3)cc2O1 [Example 261, (2R)-4-[(2R)-3-(3,4-dihydro-1H-isoquinolin-2-yl)-2-hydroxy-propyl]-8-[[1-(2-hydroxyethyl)-4-piperidyl]oxy]-2-methyl-2,3-dihydro-1,4-benzoxazepin-5-one di hydrochloride]"
7,0.1 to 1 µM,"O=C1c2ccc(OCCN3CCOCC3)cc2OCCN1C[C@H](O)CN1CCc2ccccc2C1 [Example 73, 4-[(2R)-3-(3,4-dihydro-1H-isoquinolin-2-yl)-2-hydroxy-propyl]-8-(2-morpholinoethoxy)-2,3-dihydro-1,4-benzoxazepin-5-one]"
8,0.1 to 1 µM,"O=C1c2ccc(CN3CCC(F)(F)C3)cc2OCCN1C[C@H](O)CN1CCc2ccccc2C1 [Example 52, 8-[(3,3-difluoropyrrolidin-1-yl)methyl]-4-[(2R)-3-(3,4-dihydro-1H-isoquinolin-2-yl)-2-hydroxy-propyl]-2,3-dihydro-1,4-benzoxazepin-5-one]"
9,0.1 to 1 µM,"O=C1c2ccc(OC3CCN(CCF)CC3)nc2OCCN1C[C@H](O)CN1CCc2ccccc2C1 [Example 164, 4-[(2R)-3-(3,4-dihydro-1H-isoquinolin-2-yl)-2-hydroxy-propyl]-8-[[1-(2-fluoroethyl)-4-piperidyl]oxy]-2,3-di hydropyrido[3,2-f][1,4]oxazepin-5-one]"
10,0.1 to 1 µM,"O=C1c2ccc(OCc3ccc(F)nc3)cc2OCCN1C[C@H](O)CN1CCc2ccccc2C1 [Example 61, 4-[(2R)-3-(3,4-dihydro-1H-isoquinolin-2-yl)-2-hydroxy-propyl]-8-[(6-fluoro-3-pyridyl)methoxy]-2,3-dihydro-1,4-benzoxazepin-5-one]"
11,0.001 to 0.1 µM,"CCN1CCCC(Oc2ccc3c(c2)OCCN(C[C@H](O)CN2CCc4ccccc4C2)C3=O)C1 (stereo partly drawn) [Example 69, 4-[(2R)-3-(3,4-dihydro-1H-isoquinolin-2-yl)-2-hydroxy-propyl]-8-[(1-ethyl-3-piperidyl)oxy]-2,3-dihydro-1,4-benzoxazepin-5-one]"
12,0.1 to 1 µM,"CC(=O)N1CC[C@H](Oc2ccc3c(c2)OCCN(C[C@H](O)CN2CCc4ccccc4C2)C3=O)C1 [Example 82, 8-[(3S)-1-acetylpyrrolidin-3-yl]oxy-4-[(2R)-3-(3,4-dihydro-1H-isoquinolin-2-yl)-2-hydroxy-propyl]-2,3-dihydro-1,4-benzoxazepin-5-one]"
13,0.001 to 0.1 µM,"CC(=O)N1CC[C@@H](Oc2ccc3c(c2)OCCN(C[C@H](O)CN2CCc4ccccc4C2)C3=O)C1 [Example 81, 8-[(3R)-1-acetylpyrrolidin-3-yl]oxy-4-[(2R)-3-(3,4-dihydro-1H-isoquinolin-2-yl)-2-hydroxy-propyl]-2,3-dihydro-1,4-benzoxazepin-5-one]"
14,0.1 to 1 µM,"CN(C)Cc1ccc2c(c1)OCCN(C[C@H](O)CN1CCc3ccccc3C1)C2=O [Example 25, 4-[(2R)-3-(3,4-dihydro-1H-isoquinolin-2-yl)-2-hydroxy-propyl]-8-[(dimethylamino)methyl]-2,3-dihydro-1,4-benzoxazepin-5-one]"
